Reference: PubChem BioAssay (NCI)
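These data come from cells grown in 96-well plates and exposed to compound for 48 hours at five concentrations. TGI marks complete inhibition of growth.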

How the values were obtained:
Assay in all cases: NCI tumour cell line growth inhibition, 48 h
RPMI-8226 leukemia = test system: RPMI-8226 leukemia
TK-10 renal = test system: TK-10 renal
NCI-H226 lung = test system: NCI-H226 lung
HCC-2998 colon = test system: HCC-2998 colon
HCT-116 colon = test system: HCT-116 colon
OVCAR-8 ovarian = test system: OVCAR-8 ovarian
MDA-MB-435 = test system: MDA-MB-435
HT29 colon = test system: HT29 colon
IGROV1 ovarian = test system: IGROV1 ovarian
UO-31 renal = test system: UO-31 renal

Row | SMILES | TGI (RPMI-8226 leukemia) | TGI (TK-10 renal) | TGI (NCI-H226 lung) | TGI (HCC-2998 colon) | TGI (HCT-116 colon) | TGI (OVCAR-8 ovarian) | TGI (MDA-MB-435) | TGI (HT29 colon) | TGI (IGROV1 ovarian) | TGI (UO-31 renal)
1 | CC1=C2CC3=C(C)C(=O)O[C@H]3C[C@@H](C)[C@@H]2CC1 | > 100 µM | > 100 µM | > 100 µM | > 100 µM | > 100 µM | > 100 µM | > 100 µM | > 100 µM | > 100 µM | > 100 µM
2 | COc1cc(C2c3cc4c(c(O)c3C(=O)C3CCC(=O)N32)OCO4)cc(OC)c1OC (stereo not given) | > 100 µM | > 100 µM | > 100 µM | > 100 µM | > 100 µM | > 100 µM | 58.9 µM | > 100 µM | > 100 µM | > 100 µM
3 | COC(=O)C(I(OS(=O)(=O)c1ccc(C)cc1)c1ccccc1)=P(c1ccccc1)(c1ccccc1)c1ccccc1 | 24.2 µM | 57 µM | 23.2 µM | 34.8 µM | 30.2 µM | 48.1 µM | 36.5 µM | 42.1 µM | 37.7 µM | 54.8 µM
4 | CC(C)(C)OC(=O)N(CCCN)CCCCN(CCCN)C(=O)OC(C)(C)C | > 100 µM | > 100 µM | > 100 µM | > 100 µM | > 100 µM | > 100 µM | > 100 µM | > 100 µM | > 100 µM | > 100 µM
5 | CCOC(=O)C1C(=O)C=C(c2cc(C)ccc2O)CC1c1cccc(Br)c1 (stereo not given) | 33.8 µM | 42.1 µM | 37.3 µM | 34.6 µM | 40.7 µM | 92.7 µM | 8.81 µM | 37.5 µM | 39.5 µM | 56.6 µM
6 | O=C(c1ccccc1)c1cc(-c2ccccc2)c(-c2ccccc2)[nH]c(=O)c1=O | 60 µM | > 100 µM | > 100 µM | 60.6 µM | > 100 µM | > 100 µM | > 100 µM | > 100 µM | > 100 µM | > 100 µM
7 | N#Cc1c(C#N)c(-c2ccco2)n(/N=C/c2ccco2)c1N | > 100 µM | > 100 µM | 66.2 µM | > 100 µM | > 100 µM | 66.2 µM | > 100 µM | > 100 µM | > 100 µM | > 100 µM
8 | CN1CCN(c2nc3c(c(=O)n(C)c(=O)n3C)n2C)CC1 | > 100 µM | > 100 µM | > 100 µM | > 100 µM | > 100 µM | > 100 µM | > 100 µM | > 100 µM | > 100 µM | > 100 µM
9 | CC(=O)CC(=O)Nn1c(-c2cccs2)nc2ccc(I)cc2c1=O | > 100 µM | > 100 µM | > 76.4 µM | > 67.4 µM | > 100 µM | > 100 µM | > 100 µM | > 100 µM | > 100 µM | > 91.3 µM
10 | NC(N)=NS(=O)(=O)c1ccc(NC(=O)c2c3ccccc3nc3ccccc23)cc1 | > 100 µM | > 100 µM | > 100 µM | > 100 µM | > 100 µM | > 100 µM | > 100 µM | > 100 µM | > 100 µM | > 100 µM
11 | O=C1N[C@@H](c2c[nH]c3ccc(Br)cc23)C(=O)N[C@H]1c1c[nH]c2ccc(Br)cc12 | 38.2 µM | 21.7 µM | 26.9 µM | 11.8 µM | 21.8 µM | 26 µM | 16.8 µM | 20.2 µM | 29.4 µM | 45 µM
12 | COC(=O)c1ccc2[nH]c3c(c2c1)CC(=O)Nc1ccccc1-3 | > 100 µM | > 100 µM | > 100 µM | > 100 µM | > 100 µM | > 100 µM | > 100 µM | > 100 µM | > 100 µM | 0.211 µM
13 | O=C1c2c(ccc3c2CCCC3)CC12Cc1ccccc1C2 | 45.5 µM | > 100 µM | 71.7 µM | > 74.8 µM | 26.1 µM | > 100 µM | > 100 µM | > 57.1 µM | > 100 µM | 68.5 µM
14 | Cc1ccc(-c2cn3c(nc4ccccc43)c(C)n2)cc1 | > 100 µM | > 100 µM | > 100 µM | > 100 µM | > 100 µM | > 100 µM | 97 µM | > 100 µM | > 31.6 µM | > 30.1 µM
15 | COc1cc2c(cc1C)NC(=O)/C2=C/c1c(Cl)n(C)c2ccccc12 | > 100 µM | 30.7 µM | 27.2 µM | 20.1 µM | 21.9 µM | 35.8 µM | 3.69 µM | 22.5 µM | 17.1 µM | 22.9 µM
16 | O=C(C(Cl)=C(Nc1ccccc1)Nc1ccccc1)C(Cl)Cl | 78.9 µM | > 100 µM | 93.6 µM | 37.3 µM | 60.2 µM | 42.8 µM | 39.8 µM | 48.1 µM | > 100 µM | > 100 µM
17 | O=C(O)CCCCCNC(=O)CCC(CN(CC(=O)OCc1ccccc1)CC(=O)OCc1ccccc1)N(CC(=O)OCc1ccccc1)CC(=O)OCc1ccccc1 (stereo not given) | 31.9 µM | 29.9 µM | 54.2 µM | 30.5 µM | 31.2 µM | 30.1 µM | 35.4 µM | 33.7 µM | 33.8 µM | 29.3 µM
18 | CC(C)NC(=O)OCc1c(COC(=O)NC(C)C)c(-c2ccc[n+](COC(=O)C3CCCCC3)c2)n2c1CCC2 | > 100 µM | > 100 µM | > 100 µM | > 100 µM | > 100 µM | > 100 µM | > 100 µM | > 100 µM | > 100 µM | > 100 µM
